The values that follow come from patent US20230382940A1, “ANTIVIRAL COMPOUNDS AND METHODS OF MAKING AND USING THE SAME” (Gilead Sciences, Inc., priority 2022, published 2023).

Data set [1] has as its system Human Rhinovirus 1B (HRV1B). As to the kind of experiment: H1-HeLa HRV-CTG 384-well assay, HRV1B, Example X. The note with it: Rhinovirus A, 96 h; H1-HeLa cells, HRV1B MOI 0.5, 4 days, Celltiter-Glo; read-out: EC50 H1-HeLa_HRV 1B_HRV-CTG 384-well Assay (per Ex. X). The data set is classed as cell-based. Put shortly:
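H1-HeLa cells (5,000/well, DMEM 2% FBS) infected with HRV1B, HRV14 or HRV16 at MOI 0.5, 1.0 and 0.25 respectively, with 10-point 1:3 compound dilutions; 4 days at 37 °C. Viability by CellTiter-Glo luminescence, normalized to rupintrivir and DMSO controls; EC50 by non-linear regression.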
On the technique in general: Cellular ATP, detected with luciferase, serves as a proxy for viable cell number.

Data set [2] can be described thus: GI S9 stability, dog, Example Y. The data set is classed as in vitro ADME. The note with it: dog intestinal S9, 1.0 mg/mL protein, 2 μM compound, pH 7.4; for half-life at 2 μM: pooled intestinal S9 fractions, read-out: GIS9 DOG T½ (per Ex. Y). As to the method:
(§1) Example Y: GI S9 Stability Data
(§2) Stock solutions of test compounds in dimethyl sulfoxide (DMSO) having a final concentration of 10 mM were prepared and used in all experiments. Sekisui XenoTech (Kansas City, KS) provided pooled intestinal S9 fractions. All other chemicals were purchased from Sigma-Aldrich (St. Louis, MO) or VWR (West Chester, PA). Internal Standard/Quench (IS/Q) used to stop reactions was 100 nM labetalol in (by volume) methanol (10%) and acetonitrile (90%).
(§3) Stability in Intestinal S9 Fractions: Duplicate aliquots of test compound or positive control substrate were added to S9 stock diluted with phosphate buffered saline (137 mM NaCl, 2.7 mM KCl, 10 mM phosphate buffer), pH 7.4, to obtain a protein concentration of 1.0 mg/mL. The metabolic reactions were initiated by the addition of the substrates to the S9 reaction mixture to a final concentration of 2 μM. At 0, 10, 20, 30, 60 and 120 min, 25 μL aliquots of the reaction mixture were transferred to plates containing 225 μl of IS/Q solution. After quenching, the plates were centrifuged at 3000×g for 30 minutes. 150 μL aliquots of each supernatant were dried down then reconstituted with 300 μL water. Aliquots (10 μL) of the prepared samples were analyzed on a Thermo Q-Exactive mass spectrometer as described below.
(§4) Liquid Chromatography—Mass Spectrometry: Quantification of test compounds and control substrate was performed by analyte/internal standard peak area ratio (PAR) values measured on a Thermo Q-Exactive mass spectrometer coupled to a Dionex UltiMate 3000 HPLC with a Leap Technologies HTC PAL autosampler. The column used for analysis was a Waters Acquity BEH C18 (1.7 μm particle size, 2.1×50 mm). Mobile phase A consisted of 0.1% (v/v) formic acid in water. Mobile phase B consisted of 0.1% (v/v) formic acid in acetonitrile. Elution of analytes was achieved by a series of linear gradients varying the proportions of A and B. The mass spectrometer was calibrated on a weekly basis and mass tolerance of 5 ppm was used.
(§5) Metabolic stabilities in S9 fractions were determined by measuring the rates of disappearance of test compound and positive control substrate.
(§6) Data (% of substrate remaining) were plotted on a semi-log scale and fitted using an exponential decline model:
(§7) Ct=C0×e^−ln2/T1/2×t • Where Ct—% of substrate remaining at time=t; C0—% of substrate remaining at time=0; t—time; T1/2—half-life. • The Half-life (T1/2) is determined by the following equation: […]
(§8) Assuming a first-order reaction, the slope (k) is extrapolated from the aforementioned plotted data.

The nature of data set [3]: GI S9 stability, cyno, Example Y. The format is in vitro ADME. The note with it: cynomolgus monkey, pooled intestinal S9 fractions; cyno intestinal S9, 1.0 mg/mL protein, 2 μM compound, pH 7.4; read-out: GIS9 Cyno T½ (per Ex. Y). As to the method:
as §1, §2, §3, §4, §5, §6, §7, §8

The structures appear in SMILES notation. pEC50: −log10 of the molar value.

As usually defined, the pEC50 is the negative decadic logarithm of the EC50, by convention in mol/L. In the case of `CC(C)COC(=O)OC[C@@]1(C#N)O[C@@H](c2ccc3c(N)ncnn23)[C@@H]2OC(=O)O[C@@H]21` [Compound 15, ((3aS,4R,6S,6aS)-6-(4-aminopyrrolo[2,1-f][1,2,4]triazin-7-yl)-4-cyano-2-oxotetrahydrofuro[3,4-d][1,3]dioxol-4-yl)methyl isobutyl carbonate], the pEC50 in data set [1] was 5.15. The half-life at 2 μM worked out at 12 min in data set [2] and 2 min in data set [3].
With `CCC(CC)OC(=O)OC[C@@]1(C#N)O[C@@H](c2ccc3c(N)ncnn23)[C@H](O)[C@@H]1O` [Compound 14, ((2R,3S,4R,5S)-5-(4-aminopyrrolo[2,1-f][1,2,4]triazin-7-yl)-2-cyano-3,4-dihydroxytetrahydrofuran-2-yl)methyl pentan-3-yl carbonate], the pEC50 in data set [1] was 4.64. Further, the half-life at 2 μM is 534 min in data set [2] and 8 min in data set [3].
For `CC[C@H](C)OC(=O)OC[C@@]1(C#N)O[C@@H](c2ccc3c(N)ncnn23)[C@H](O)[C@@H]1O` [Compound 4, ((2R,3S,4R,5S)-5-(4-aminopyrrolo[2,1-f][1,2,4]triazin-7-yl)-2-cyano-3,4-dihydroxytetrahydrofuran-2-yl)methyl ((S)-sec-butyl) carbonate], in that order: 4.95, 462 min and 22 min.
For `CC(C)(C)COC(=O)OC[C@@]1(C#N)O[C@@H](c2ccc3c(N)ncnn23)[C@H](O)[C@@H]1O` [Compound 2, ((2R,3S,4R,5S)-5-(4-aminopyrrolo[2,1-f][1,2,4]triazin-7-yl)-2-cyano-3,4-dihydroxytetrahydrofuran-2-yl)methyl neopentyl carbonate], in that order: 5.15, 162 min and 4 min.
For `CC(C)OC(=O)OC[C@@]1(C#N)O[C@@H](c2ccc3c(N)ncnn23)[C@H](O)[C@@H]1O` [Compound 11, ((2R,3S,4R,5S)-5-(4-aminopyrrolo[2,1-f][1,2,4]triazin-7-yl)-2-cyano-3,4-dihydroxytetrahydrofuran-2-yl)methyl isopropyl carbonate], in data set [1], the pEC50 is 4.91. The “GIS9 DOG T½ (per Ex. Y)” value in data set [2] was 789 min. Besides, the half-life at 2 μM in data set [3] amounted to 35 min.
